In experiment [1] the target is BSA (Bovine Serum Albumin) (Bos taurus, UniProt P02769). The experiment is described as follows: Conductivity test: surfactant binding to BSA protein. To be noted: 10% SDS with 10% oil (1:1) or 10% SDS alone; 0.5% BSA in 0.02M acetate buffer pH~5.2, room temperature. The method, then: Conductance measurements were carried out at room temperature by use of a Thermo conductivity meter, model Orion 150+. Routinely, the titrations were performed by adding a controlled amount of 10% of stock surfactant solution under magnetic stirring into the 0.5% BSA (Bovine Serum Albumin) in 0.02M acetate buffer at pH˜5.2. Values of CMC (critical micellization concentration), CAC (critical aggregation concentration) and protein saturation point (PSP) were defined by the changing of the slope of the conductivity vs. surfactant concentration plots. The number of surfactants binding to each protein can be calculated by: {[PSP]−[CAC]}/{[protein]/Mwprotein}, where [protein] is the protein concentration.
Chain of BSA (Bovine Serum Albumin) (P02769 25-607): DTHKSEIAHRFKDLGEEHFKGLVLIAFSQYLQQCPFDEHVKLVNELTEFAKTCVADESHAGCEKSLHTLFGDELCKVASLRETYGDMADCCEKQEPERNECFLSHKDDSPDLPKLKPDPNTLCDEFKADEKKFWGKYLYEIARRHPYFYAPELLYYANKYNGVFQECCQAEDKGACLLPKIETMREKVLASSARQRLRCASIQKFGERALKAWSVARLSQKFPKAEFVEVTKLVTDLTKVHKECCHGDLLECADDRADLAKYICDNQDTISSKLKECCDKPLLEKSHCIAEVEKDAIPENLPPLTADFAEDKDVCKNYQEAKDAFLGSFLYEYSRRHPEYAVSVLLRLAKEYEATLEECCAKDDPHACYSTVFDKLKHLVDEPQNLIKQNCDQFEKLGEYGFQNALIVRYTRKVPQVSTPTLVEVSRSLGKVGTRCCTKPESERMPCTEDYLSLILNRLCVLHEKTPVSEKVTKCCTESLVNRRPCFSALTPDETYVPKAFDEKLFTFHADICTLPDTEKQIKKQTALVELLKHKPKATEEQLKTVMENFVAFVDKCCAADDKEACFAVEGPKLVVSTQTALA
In order to show the effect of benefit agent having different polarity on binding to protein molecule (a reflection of the harshness of surfactant; more surfactant binding to protein equal harsher and more damage expected), applicants tested surfactant binding of (1) surfactant alone and (2) of surfactant in combination with various oils/cosolvents (at 1:1 surfactant to oil ratio) to see level of (how many) surfactants binding per protein molecule (e.g., BSA) at saturation. The tests were done using conductivity test described in protocol and results are set forth below in Table 1.
Applicants conducted same test as in Examples 1 to 10, but used SLES/CAPB surfactant system instead of SDS.

In a further experiment the target is BSA protein (Bos taurus, UniProt P02769). In words: Micro-DSC for protein denaturation. The arrangement: species or system Bovine. To be noted: denaturation enthalpy approaching zero, FIG. 5. The method, then:
1.2% of BSA acetate buffer solution was prepared (pH 5.2, IS 0.02). […] Then the BSA acetate solution was titrated with either oil, or surfactant, or oil/surfactant at 1:1 ratio. After each titration, a DSC measurement was performed.

Chain of BSA protein (P02769 25-607): as above

As to `CCCCCCCCCCCCOS(=O)(=O)[O-].[Na+]` [10% SDS (surfactant alone), Sodium dodecyl sulfate], the “Saturated binding: No. of surfactant per BSA at saturation” value in experiment [1] is reported as 220. Further, the “ratio surfactant to protein at which BSA protein is fully denatured at room temperature” value on BSA protein is reported as “about 1.2”.

(Values after patent publication US7799748B2, “Method of selecting benefit agents/oils suitable for reducing surfactant damage” (Conopco, Inc., priority 2005, dated 2010).)
